From ChEMBL document CHEMBL1130593, “The importance of GLU361 position in the reaction catalyzed by cholesterol oxidase” (Bioorg Med Chem Lett, 1998)

Assays:
Streptomyces [1] = test: Steady-state kinetic parameter on wild-type cholesterol oxidase
Streptomyces [2] = test: Steady-state kinetic parameter on E361D mutant cholesterol oxidase

SMILES | Km (Streptomyces [1]) | k cat (Streptomyces [1]) | Km (Streptomyces [2]) | k cat (Streptomyces [2])
CC(C)CCC[C@@H](C)[C@H]1CC[C@H]2[C@@H]3CC=C4C[C@@H](O)CC[C@]4(C)[C@H]3CC[C@]12C | 3 µM | 44 s⁻¹ | 0.6 µM | 4.2 s⁻¹
CC(C)CCC[C@@H](C)[C@H]1CC[C@H]2[C@@H]3CC=C4CC(=O)CC[C@]4(C)[C@H]3CC[C@]12C | 6.2 µM | 64 s⁻¹ | 1.4 µM | 0.2 s⁻¹
